Molecular target: T1, Cyclin-G-associated kinase (Homo sapiens) (UniProt O14976)
T1 sequence (whole entry): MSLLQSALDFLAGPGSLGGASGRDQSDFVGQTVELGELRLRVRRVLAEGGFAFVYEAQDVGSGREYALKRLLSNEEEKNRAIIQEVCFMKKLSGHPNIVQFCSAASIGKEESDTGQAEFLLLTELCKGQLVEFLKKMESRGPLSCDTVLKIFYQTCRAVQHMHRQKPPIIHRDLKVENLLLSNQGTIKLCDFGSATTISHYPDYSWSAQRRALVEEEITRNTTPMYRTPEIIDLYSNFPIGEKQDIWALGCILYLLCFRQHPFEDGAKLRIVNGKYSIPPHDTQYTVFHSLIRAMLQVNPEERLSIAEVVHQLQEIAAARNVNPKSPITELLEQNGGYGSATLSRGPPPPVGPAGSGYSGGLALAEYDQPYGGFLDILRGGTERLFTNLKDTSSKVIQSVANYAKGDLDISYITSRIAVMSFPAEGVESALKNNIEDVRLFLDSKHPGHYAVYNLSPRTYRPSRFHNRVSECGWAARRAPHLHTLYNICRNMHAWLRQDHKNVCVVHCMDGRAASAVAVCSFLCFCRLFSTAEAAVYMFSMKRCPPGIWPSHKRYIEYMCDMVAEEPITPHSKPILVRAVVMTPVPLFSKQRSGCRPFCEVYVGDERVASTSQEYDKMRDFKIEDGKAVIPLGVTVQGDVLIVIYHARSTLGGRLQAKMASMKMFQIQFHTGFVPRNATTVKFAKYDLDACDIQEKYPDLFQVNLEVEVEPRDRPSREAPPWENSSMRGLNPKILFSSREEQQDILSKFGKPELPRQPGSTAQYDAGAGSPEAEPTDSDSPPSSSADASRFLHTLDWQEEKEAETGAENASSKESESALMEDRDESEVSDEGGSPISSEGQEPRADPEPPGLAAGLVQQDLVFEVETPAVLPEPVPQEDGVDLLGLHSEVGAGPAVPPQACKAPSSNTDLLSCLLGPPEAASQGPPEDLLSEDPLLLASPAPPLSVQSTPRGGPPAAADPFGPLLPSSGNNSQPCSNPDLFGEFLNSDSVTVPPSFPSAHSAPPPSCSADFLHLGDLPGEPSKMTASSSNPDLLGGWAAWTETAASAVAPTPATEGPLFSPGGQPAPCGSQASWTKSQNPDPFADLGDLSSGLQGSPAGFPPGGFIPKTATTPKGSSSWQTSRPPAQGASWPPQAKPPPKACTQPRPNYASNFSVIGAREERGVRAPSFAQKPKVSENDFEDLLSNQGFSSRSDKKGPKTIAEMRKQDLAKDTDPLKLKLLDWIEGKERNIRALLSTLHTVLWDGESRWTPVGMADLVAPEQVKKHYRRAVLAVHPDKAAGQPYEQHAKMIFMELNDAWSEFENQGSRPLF
Description: Induction of stabilization of recombinant GAK (unknown origin) assessed as change in melting temperature by differential scanning fluorimetry assay

deltaTm	SMILES
3.6 K	O=S1(=O)NCCCNc2nc(ncc2-c2ccc(Cl)c(Cl)c2)Nc2cccc1c2
8 K	COc1cc(-c2cnc3nc2NCCCNS(=O)(=O)c2cc(ccc2O)N3)ccc1F
6.8 K	COc1c(F)ccc(-c2cnc3nc2NCCCNS(=O)(=O)c2cccc(c2)N3)c1F
7.3 K	COc1cc(-c2cnc3nc2NCCCNS(=O)(=O)c2cccc(c2)N3)c(F)cc1F

Reference: ChEMBL document CHEMBL5550200, “Back-Pocket Optimization of 2-Aminopyrimidine-Based Macrocycles Leads to Potent EPHA2/GAK Kinase Inhibitors” (J Med Chem, 2024)
